Consider 16 compounds from patent EP4635974A1, “COSMETIC COMPOSITION FOR SKIN IMPROVEMENT” (LG Household & Health Care Ltd., priority 2022, dated 2024).

Where a SMILES comes first, the peptide text is derived from it. Where no end group is shown, it is not given here. The star is where a group is joined. Palmitoyl = CCCCCCCCCCCCCCCC(=O)*

Experiment [1] concerns the target T1, Elastase derived from human leukocytes (Homo sapiens, UniProt P08246).
T1 construct: Elastase derived from human leukocytes was used; from tissue; host or cells: human leukocytes
T1 sequence (P08246 30-267): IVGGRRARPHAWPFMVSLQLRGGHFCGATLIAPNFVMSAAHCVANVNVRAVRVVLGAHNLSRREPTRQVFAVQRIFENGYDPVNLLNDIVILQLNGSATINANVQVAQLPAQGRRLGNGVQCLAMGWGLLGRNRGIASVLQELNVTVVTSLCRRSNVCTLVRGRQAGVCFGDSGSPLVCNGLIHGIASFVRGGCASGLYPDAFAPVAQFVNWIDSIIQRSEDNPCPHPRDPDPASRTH
The experiment can be described thus: Inhibition of elastase activity (synthetic substrate, absorbance at 405 nm). The experiment is classed as biochemical. The note with it: for Inhibition of elastase activity (%): 100 µg/mL. The protocol: (§1) In order to investigate the effect of peptide sequence variation, the activity of […] was tested as in Test Example 1 after sequence variation. Elastase derived from human leukocytes was used, and the synthetic substrate MeOSuc-Ala-Ala-Pro-Val-pNA was used as the substrate of elastase. A 100 mM Tris (pH 7.5) solution was used as a buffer solution. The elastase was diluted finally to 0.2 mU using the buffer solution. In addition, the synthetic substrate of elastase was prepared into a 100 mM solution using DMSO, and then diluted to a final concentration of 0.5 mM using a buffer solution. As a positive control group, quercetin known to inhibit elastase was used at a concentration of 10 ppm. The candidates of elastase inhibition were tested at final concentrations of 10 and 20 ppm. Reaction was conducted in a 96-well plate at room temperature for 20 minutes. The inhibition of the enzyme activity was determined by measuring absorbance at 405 nm using a spectrophotometer with 1-minute intervals, and calculating the slope of the absorbance versus time.
(§2) The peptide sequences of SEQ ID NOS 14 to 16 were treated at 100 µg/mL, and the peptide sequence RKSLFVD was used as a control peptide sequence. The inhibition of collagenase activity (%) and the inhibition of elastase activity (%) were calculated from the relative enzyme activity versus the control group, and the result is given in Table 4.
(§3) In order to investigate the effect of variation of the N-terminal or C-terminal of the peptide sequence, the activity of collagenase and elastase was tested after sequence variation as in Test Example 1.

Experiment [2] relates to acetylcholine release at the neuromuscular synapses. The note with it: cited from earlier work.
The subject of experiment [3] is Collagenase derived from the mouse pancreas. The experiment can be described thus: Inhibition of collagenase activity (synthetic substrate, absorbance at 345 nm). The experiment is classed as biochemical. Conditions: 100 µg/mL. As to the method: Collagenase derived from the mouse pancreas was used, and the synthetic substrate N-(3-[2-furyl]acryloyl)-Leu-Gly-Pro-Ala was used as the substrate of collagenase. A buffer solution in which 50 mM tricine, 10 mM CaCl2·H2O and 400 mM NaCl were dissolved (pH 7.5) was used. The synthetic substrate was dissolved in the buffer solution to a concentration of 10 mM and finally diluted to 75 µM. The collagenase was dissolved to a concentration of 1 unit/mL using cold triply distilled water at 4 °C and then finally diluted to 0.05 unit/mL using a buffer solution. The candidates of collagenase inhibition were tested at final concentrations of 25 and 50 ppm. As a positive control group, epigallocatechin gallate (EGCG) known to have the effect of inhibiting collagenase was used at a final concentration of 50 ppm. Reaction was conducted in a 96-well plate at room temperature for 10 minutes. The inhibition of the enzyme activity was determined by measuring absorbance at 345 nm using a spectrophotometer with 1-minute intervals, and calculating the maximum slope of the absorbance versus time.
as §1, §2, §3

The mark [4] stands for this setting: Table 5, N-terminal or C-terminal variation.
The mark [5] stands for this setting: Table 4, relative enzyme activity versus the control group.

As for `CC(=O)N[C@@H](CCCCN)C(=O)NCC(=O)N[C@@H](CCCNC(=N)N)C(=O)N[C@@H](CO)C(=O)N[C@@H](CO)C(=O)N[C@@H](CS)C(=O)N[C@@H](Cc1ccccc1)C(=O)N[C@H](C(=O)N[C@@H](CC(=O)O)C(=O)N[C@@H](CS)C(=O)O)C(C)C` (Ac-KGRSSCFVDC-OH), the inhibition at 100 µg/mL in experiment [1] (setting [4]) came out at 71%.
Still for that read-out and setting: as for `CCCCCCCCCCCCCCCC(=O)N[C@@H](CCCCN)C(=O)NCC(=O)N[C@@H](CCCNC(=N)N)C(=O)N[C@@H](CO)C(=O)N[C@@H](CO)C(=O)N[C@@H](CS)C(=O)N[C@@H](Cc1ccccc1)C(=O)N[C@H](C(=O)N[C@@H](CC(=O)O)C(=O)N[C@@H](CS)C(=O)O)C(C)C` (Palmitoyl-KGRSSCFVDC-OH), the figure is 74.1%.
In experiment [1] (setting [4]), `CC(C)[C@H](NC(=O)[C@H](Cc1ccccc1)NC(=O)[C@H](CS)NC(=O)[C@H](CO)NC(=O)[C@H](CO)NC(=O)[C@H](CCCNC(=N)N)NC(=O)CNC(=O)[C@@H](N)CCCCN)C(=O)N[C@@H](CC(=O)O)C(=O)N[C@@H](CS)C(N)=O` [C-amine-substituted peptide of SEQ ID] (H-KGRSSCFVDC-NH2) displayed an inhibition at 100 µg/mL of 52.6%.
Take “Ac-Glu-Glu-Met-Gln-Arg-Arg-NH2 (Ac-EEMQRR-NH2) [Argireline]”: the “times weaker than Botox” value in experiment [2] was 5000 times.
As for CDVFCSSRGK [SEQ ID NO 14], the “Inhibition of elastase activity (%)” value in experiment [1] (setting [5]) stood at 68.5%. Further, the “Inhibition of collagenase activity (%)” value in experiment [3] (setting [5]) came out at 24.77%.
As to DVFCSSRGK [SEQ ID NO 15, DVFCSSRGK], 100 µg/mL produced 65.5% inhibition in experiment [1] (setting [5]).
Still for that read-out and setting: as for FCSSRGK [SEQ ID NO 16, FCSSRGK], the figure is 51.5%; as for KGRSSCF [SEQ ID NO 3, KGRSSCF], 57.8%.
For the compound KGRSSCFDC [SEQ ID NO 11], the “Inhibition of collagenase activity (%)” value in experiment [3] (Table 3) was 11.82%.
For the compound KGRSSCFVC [SEQ ID NO 12], in experiment [3] (Table 3), the “Inhibition of collagenase activity (%)” value was 13.97%.
Regarding KGRSSCFVD [SEQ ID NO 2, KGRSSCFVD], in experiment [1] (setting [5]), testing at 100 µg/mL gave an inhibition of 70.9%.
As to KGRSSCFVDC [SEQ ID NO 1], the “Inhibition of elastase activity (%)” value in experiment [1] (setting [5]) was 72.1%; in experiment [1] (setting [4]) it was 68.3%. Also, the “Inhibition of collagenase activity (%)” value in experiment [3] (Table 3) came out at 22.91%; in experiment [3] (setting [5]) it was 21.57%; in experiment [3] (setting [4]), 22.6%.
In the case of KGSSCFVDC [SEQ ID NO 10], the “Inhibition of collagenase activity (%)” value in experiment [3] (Table 3) worked out at 15.24%.
Take “RKSLFVD [Control peptide sequence, RKSLFVD, reference compound]”: the inhibition at 100 µg/mL in experiment [1] (setting [5]) is 5.2%; in experiment [1] (setting [4]) it was 1.3%.
In the case of RSSCFVDC [SEQ ID NO 5], the “Inhibition of collagenase activity (%)” value in experiment [3] (Table 3) came to 12.23%.
Still for that read-out and setting: next, SSCFVDC [SEQ ID NO 6]: 17.97%.
